Measurements reported in patent US9226503B2, “Composition and method for attraction of emerald ash borer Agrilus planipennis fairmaire (coleoptera: buprestidae)” (Her Majesty the Queen in Right of Canada, as represented by …, priority 2011, dated 2016).

Experiments:
A. planipennis antennae = test: EAG dose-response study; design: species or system Agrilus planipennis; details: for EAG responsiveness of female antennae compared with male antennae: particularly at higher doses, P<0.0001; for EAG response of female antennae, (3Z)- vs (3E)-lactone: stimulus doses 0.01-100 μg, P=0.91
Description: EAG analyses were made by methods and equipment generally described by Cossé & and Bartelt (2000). EAG connections were made by inserting a glass-pipette silver-grounding electrode into the back of an excised beetle head. A second glass-pipette silver-recording probe was placed in contact with the distal end of one antenna. Both pipettes were filled with Beadle-Ephrussi (Ephrussi and Beadle 1936) saline.
For the EAG-dose-response study, (3Z)- and (3E)-lactones were purified (99.9% purity by GC/MS) by high performance liquid chromatography (HPLC) using a Waters 515 pump, a Waters R401 refractive index detector, and a 25 cm by 0.46 cm i.d. silica column (Adsorbosphere Silica 5 μm, Alltech, Deerfield, Ill.), treated with silver nitrate as described by Heath and Sonnett (1980). Solvent was 8% ether in hexane. Ten micro liters of serially diluted solutions (methylene chloride) of synthetic (3Z)-lactone and (3E)-lactone were applied to filter paper strips (0.5 cm×5 cm, Whatman no. 1). The filter paper strips were placed in 14-cm-long Pasteur pipettes, hereafter referred to as stimulus cartridges, after 5 min at room temperature. Stimulus doses tested were 0.01, 0.1, 1, 10, and 100 μg. Male and female antennae were exposed to single 0.2s puffs of odor-bearing air at 5 ml/s by placing the tip of an stimulus cartridge into a hole of a glass tube (0.7 cm ID×20 cm), 10 cm from the outlet and 11 cm away from the antennal preparation. Airflow through the glass tube was humidified and set at 10 ml/s. Puff duration and airflow speeds were maintained by a stimulus flow controller (SFC-2, Syntech, Hilversum, The Netherlands). Stimuli cartridges were selected in random order, beginning with the lowest dosages and working upward to the highest dosages. Each puffed dosage was preceded and followed by a puff from a solvent blank cartridge (filter paper plus solvent). To compensate for possible deterioration of the antennal preparation, a standard control compound, geranyl acetone (1 μg dose) preceded dosages of stimuli compound. EAG amplitudes were normalized according to the responses to geranyl acetone by dividing the amplitude of the EAG generated by the test compounds by that of geranyl acetone. Dose-response series were replicated, using different antennal preparation for each replication, and the EAG responses were expressed as a percentage of the EAG responses to geranyl acetone. Each antennal preparation was tested with freshly prepared sets of stimuli cartridges. Male and female EAG responses were submitted to analysis of variance (ANOVA) using Statistica for Windows software (StatSoft Inc. Tulsa, Okla.)).

A. planipennis = test: Field trapping experiment 2 (2009), purple prism traps, Ontario; format: in vivo, Agrilus planipennis; details: as compared to the Phoebe oil alone
Experimental: Field trapping. Three trapping experiments were carried out in green ash plantations (F. pennsylvanica Marsch) with low-to-moderate A. planipennis populations about 40 km southeast of Sarnia, Ontario (42° 58′ 0 N, 82° 24′ 0 W) in 2008, 2009 and 2010. Trees at these sites were generally healthy in appearance with low or no signs of decline, and only a small number of trees had obvious signs/symptoms of infestation by A. planipennis. In Ontario sites, trees were 20-25 years old, 4-6 m tall, 10-15 cm in diameter, and spaced about 2 m apart within a row and 2.5 m between rows. In 2010, the trapping experiment was replicated at four sites in Michigan, USA, in addition to the sites in Ontario. Sites in Michigan were 10-100 years old, 10-30 m tall, 15-70 cm in diameter, and located in a mixed woodlot. […] Traps were checked every 2 weeks and A. planipennis were collected, counted and sexed. […]
The effect of each attractant on mean catch of female and male A. planipennis was analyzed independently using ANOVA and a randomized complete block design. Sites were analyzed separately in 2009 due to differences in sex ratios. In 2010, sites in Ontario were analyzed separately from those in Michigan due to the considerable differences in stand conditions and height of traps with respect to the ash canopy. […]

SMILES | EAG responsiveness of female antennae compared with male antennae (A. planipennis antennae) | EAG response of female antennae, (3Z)- vs (3E)-lactone (A. planipennis antennae) | number of male or female A. planipennis captured, effect of lactone alone or with Phoebe oil (A. planipennis)
O=C1C/C=C/CCCCCCCCO1 [(3E)-lactone, (3E)-dodecen-12-olide] | more responsive | did not respond differently | neither (3Z) nor (3E)-lactone alone, or in combination with Phoebe oil, significantly increased
O=C1C/C=C\CCCCCCCCO1 [(3Z)-lactone, (3Z)-dodecen-12-olide] | more responsive | did not respond differently | neither (3Z) nor (3E)-lactone alone, or in combination with Phoebe oil, significantly increased
